From ChEMBL document CHEMBL6087488, “Development of the First-in-Class FEM1B-Recruiting Histone Deacetylase Degraders” (J Med Chem, 2025)
Activity calls are given as the source filed them. The rule behind the calls is not given here.

What was measured:
[1] = target: T1, Protein fem-1 homolog B/Histone deacetylase 1 (Homo sapiens, UniProt Q13547+Q9UK73); experiment: PROTAC activity at FEM1B/HDAC1 in human MM1.S cell lysate assessed as initial degradation at 1 uM measured after 24 hrs by Western immunoassay; assay type: subcellular
T1 sequence (Q13547 whole entry, looked up): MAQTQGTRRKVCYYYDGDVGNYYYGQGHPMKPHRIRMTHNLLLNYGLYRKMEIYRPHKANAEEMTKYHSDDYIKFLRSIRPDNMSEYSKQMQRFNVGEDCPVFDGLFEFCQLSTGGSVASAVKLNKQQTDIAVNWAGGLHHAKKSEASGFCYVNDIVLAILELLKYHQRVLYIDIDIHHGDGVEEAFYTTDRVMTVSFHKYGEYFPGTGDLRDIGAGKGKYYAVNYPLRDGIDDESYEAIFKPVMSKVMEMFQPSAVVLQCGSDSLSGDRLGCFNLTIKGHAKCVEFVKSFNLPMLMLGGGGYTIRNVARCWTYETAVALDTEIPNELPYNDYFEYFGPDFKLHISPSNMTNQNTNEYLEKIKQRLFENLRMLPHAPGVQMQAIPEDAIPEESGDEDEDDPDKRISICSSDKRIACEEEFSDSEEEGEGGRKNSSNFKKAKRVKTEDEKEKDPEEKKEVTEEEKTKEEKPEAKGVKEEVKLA
T1 sequence (Q9UK73 whole entry, looked up): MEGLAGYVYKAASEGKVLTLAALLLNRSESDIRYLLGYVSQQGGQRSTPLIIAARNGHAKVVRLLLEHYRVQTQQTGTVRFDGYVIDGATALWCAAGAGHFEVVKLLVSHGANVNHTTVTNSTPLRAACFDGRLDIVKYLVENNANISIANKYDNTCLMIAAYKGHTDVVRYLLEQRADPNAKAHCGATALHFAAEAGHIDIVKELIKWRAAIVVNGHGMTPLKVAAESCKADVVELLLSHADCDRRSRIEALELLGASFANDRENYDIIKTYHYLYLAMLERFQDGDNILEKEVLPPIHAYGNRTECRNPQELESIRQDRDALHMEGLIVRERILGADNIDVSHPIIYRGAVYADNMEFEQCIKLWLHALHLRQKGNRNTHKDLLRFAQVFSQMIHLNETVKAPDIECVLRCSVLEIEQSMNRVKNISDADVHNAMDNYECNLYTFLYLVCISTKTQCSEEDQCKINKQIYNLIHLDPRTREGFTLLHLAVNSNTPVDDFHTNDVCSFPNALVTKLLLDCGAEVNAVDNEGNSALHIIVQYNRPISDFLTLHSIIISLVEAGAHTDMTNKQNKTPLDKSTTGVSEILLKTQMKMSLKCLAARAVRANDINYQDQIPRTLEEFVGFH

[2] = target: T1, Protein fem-1 homolog B/Histone deacetylase 1; experiment: PROTAC activity at FEM1B/HDAC1 in human MM.1S cell lysate assessed as maximal initial degradation at measured after 24 hrs by Western immunoassay relative to control; assay type: subcellular; conditions: MM1.S
[3] = target: T1, Protein fem-1 homolog B/Histone deacetylase 1; experiment: PROTAC activity at FEM1B/HDAC1 in human MM1.S cell lysate assessed as protein degradation at 1 uM measured after 24 hrs by Western immunoassay; assay type: subcellular
[4] = target: Protein fem-1 homolog B/Histone deacetylase 2 (Homo sapiens) (UniProt Q92769+Q9UK73); experiment: PROTAC activity at FEM1B/HDAC2 in human MM1.S cell lysate assessed as protein degradation at 1 uM measured after 24 hrs by Western immunoassay; assay type: subcellular
[5] = target: Protein fem-1 homolog B/Histone deacetylase 3 (Homo sapiens) (UniProt O15379+Q9UK73); experiment: PROTAC activity at FEM1B/HDAC3 in human MM1.S cell lysate assessed as protein degradation at 1 uM measured after 24 hrs by Western immunoassay; assay type: subcellular
Chain of Protein fem-1 homolog B/Histone deacetylase 3 (Homo sapiens) (O15379 whole entry, looked up): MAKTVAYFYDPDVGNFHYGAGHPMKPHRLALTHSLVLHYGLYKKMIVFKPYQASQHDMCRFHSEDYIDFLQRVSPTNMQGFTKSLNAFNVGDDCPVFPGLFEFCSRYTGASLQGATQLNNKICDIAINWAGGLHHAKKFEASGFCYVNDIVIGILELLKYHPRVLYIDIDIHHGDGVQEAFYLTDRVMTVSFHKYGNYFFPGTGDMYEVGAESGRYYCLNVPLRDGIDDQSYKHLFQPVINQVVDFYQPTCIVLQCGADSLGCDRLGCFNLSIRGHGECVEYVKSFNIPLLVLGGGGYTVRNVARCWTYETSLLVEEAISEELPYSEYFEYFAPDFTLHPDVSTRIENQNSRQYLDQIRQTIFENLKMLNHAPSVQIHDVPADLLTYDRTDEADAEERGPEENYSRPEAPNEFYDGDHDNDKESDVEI
Chain of Protein fem-1 homolog B/Histone deacetylase 3 (Homo sapiens) (Q9UK73 whole entry, looked up): as the sequence (Q9UK73 whole entry, looked up) above

[6] = target: Protein fem-1 homolog B/Protein deacetylase HDAC6 (Homo sapiens) (UniProt Q9UBN7+Q9UK73); experiment: PROTAC activity at FEM1B/HDAC6 in human MM1.S cell lysate assessed as protein degradation at 1 uM measured after 24 hrs by Western immunoassay; assay type: subcellular
[7] = target: Protein fem-1 homolog B/Histone deacetylase 4 (Homo sapiens) (UniProt P56524+Q9UK73); experiment: PROTAC activity at FEM1B/HDAC4 in human MM1.S cell lysate assessed as protein degradation at 1 uM measured after 24 hrs by Western immunoassay; assay type: subcellular
[8] = target: Protein fem-1 homolog B/Histone deacetylase 8 (Homo sapiens) (UniProt Q9BY41+Q9UK73); experiment: PROTAC activity at FEM1B/HDAC8 in human MM1.S cell lysate assessed as protein degradation at 1 uM measured after 24 hrs by Western immunoassay; assay type: subcellular
[9] = target: T1, Protein fem-1 homolog B/Histone deacetylase 1; experiment: PROTAC activity at FEM1B/HDAC1 in human MM1.S cell lysate assessed as neddylation-dependent protein degradation at 1 uM in presence of vorinostat measured after 24 hrs by Western immunoassay; assay type: subcellular
[10] = target: T1, Protein fem-1 homolog B/Histone deacetylase 1; experiment: PROTAC activity at FEM1B/HDAC1 in human MM1.S cell lysate assessed as neddylation-dependent protein degradation at 1 uM in presence of MLN4924 measured after 24 hrs by Western immunoassay; assay type: subcellular
[11] = target: T1, Protein fem-1 homolog B/Histone deacetylase 1; experiment: PROTAC activity at FEM1B/HDAC1 in human MV4-11 cell lysate assessed as protein degradation at 10 uM measured after 24 hrs by Western immunoassay relative to control; assay type: subcellular
[12] = target: T1, Protein fem-1 homolog B/Histone deacetylase 1; experiment: PROTAC activity at FEM1B/HDAC1 in human MDA-MB-231 cell lysate assessed as protein degradation at 10 uM measured after 24 hrs by Western immunoassay relative to control; assay type: subcellular
[13] = target: T1, Protein fem-1 homolog B/Histone deacetylase 1; experiment: PROTAC activity at FEM1B/HDAC1 in human U-87 MG cell lysate assessed as protein degradation at 10 uM measured after 24 hrs by Western immunoassay relative to control; assay type: subcellular
MM1.S [14] = experiment: Induction of cell cycle arrest in human MM1.S cells assessed as reduction in cells at […] phase at 10 uM measured after 48 hrs by propidium iodide based flow cytometry; assay type: functional
MM1.S [15] = experiment: Induction of cell cycle arrest in human MM1.s cells assessed as increase in cells at Sub-G1 phase at 10 uM measured after 48 hrs by propidium iodide based flow cytometry; assay type: functional
MM1.S [16] = experiment: Induction of apoptosis in human MM1.S cells assessed as increase in early apoptotic cells at 10 uM measured after 48 hrs by annexin V-FITC/PI staining based assay; assay type: functional, cell-based
MM1.S [17] = experiment: Induction of apoptosis in human MM1.S cells assessed as increase in late apoptotic cells at 10 uM measured after 48 hrs by annexin V-FITC/PI staining based assay; assay type: functional, cell-based
[18] = target: Protein fem-1 homolog B/Lysine-specific histone demethylase 1A (Homo sapiens) (UniProt O60341+Q9UK73); experiment: PROTAC activity at FEM1B/KDM1A (LSD1) in human MM1.S cell lysate assessed as protein degradation at 0.5 uM measured after 6 hrs by global quantitative proteomics analysis; assay type: subcellular
Chain of Protein fem-1 homolog B/Lysine-specific histone demethylase 1A (Homo sapiens) (Q9UK73 whole entry, looked up, other chains not shown): as the sequence (Q9UK73 whole entry, looked up) above

[19] = target: Protein fem-1 homolog B/REST corepressor 1 (Homo sapiens) (UniProt Q9UKL0+Q9UK73); experiment: PROTAC activity at FEM1B/RCOR1 in human MM1.S cell lysate assessed as protein degradation at 0.5 uM measured after 6 hrs by global quantitative proteomics analysis; assay type: subcellular
Chain of Protein fem-1 homolog B/REST corepressor 1 (Homo sapiens) (Q9UK73 whole entry, looked up): as above
Chain of Protein fem-1 homolog B/REST corepressor 1 (Homo sapiens) (Q9UKL0 whole entry, looked up): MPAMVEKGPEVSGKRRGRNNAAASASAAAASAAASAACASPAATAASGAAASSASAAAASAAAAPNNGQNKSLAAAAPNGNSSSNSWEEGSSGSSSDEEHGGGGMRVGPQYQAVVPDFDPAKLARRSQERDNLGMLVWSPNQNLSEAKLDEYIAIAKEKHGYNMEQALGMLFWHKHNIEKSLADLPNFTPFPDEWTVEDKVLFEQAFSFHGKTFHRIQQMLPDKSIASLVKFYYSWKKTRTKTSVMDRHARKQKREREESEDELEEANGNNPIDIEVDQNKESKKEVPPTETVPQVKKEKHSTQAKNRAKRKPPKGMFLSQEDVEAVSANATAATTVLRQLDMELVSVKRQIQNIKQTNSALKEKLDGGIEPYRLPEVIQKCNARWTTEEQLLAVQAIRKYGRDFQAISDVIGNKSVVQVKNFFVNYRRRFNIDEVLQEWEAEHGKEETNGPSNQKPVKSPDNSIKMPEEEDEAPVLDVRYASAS

[20] = target: Protein fem-1 homolog B/REST corepressor 3 (Homo sapiens) (UniProt Q9P2K3+Q9UK73); experiment: PROTAC activity at FEM1B/RCOR3 in human MM1.S cell lysate assessed as protein degradation at 0.5 uM measured after 6 hrs by global quantitative proteomics analysis; assay type: subcellular
Chain of Protein fem-1 homolog B/REST corepressor 3 (Homo sapiens) (Q9UK73 whole entry, looked up, other chains not shown): as the sequence (Q9UK73 whole entry, looked up) above

[21] = target: Protein fem-1 homolog B//Paired amphipathic helix protein Sin3a (Homo sapiens) (UniProt Q9UK73+Q96ST3); experiment: PROTAC activity at FEM1B/SIN3A in human MM1.S cell lysate assessed as protein degradation at 0.5 uM measured after 6 hrs by global quantitative proteomics analysis; assay type: subcellular
[22] = target: Protein fem-1 homolog B/Nuclear receptor corepressor 1 (Homo sapiens) (UniProt O75376+Q9UK73); experiment: PROTAC activity at FEM1B/NCOR1 in human MM1.S cell lysate assessed as protein degradation at 0.5 uM measured after 6 hrs by global quantitative proteomics analysis; assay type: subcellular
[23] = target: Protein fem-1 homolog B//Mesoderm induction early response protein 1 (Homo sapiens) (UniProt Q9UK73+Q8N108); experiment: PROTAC activity at FEM1B/MIER1 in human MM1.S cell lysate assessed as protein degradation at 0.5 uM measured after 6 hrs by global quantitative proteomics analysis; assay type: subcellular

`N#CCCN(C(=O)CCl)c1ccc2c(c1)OCCN2CC(=O)NCC(=O)Nc1ccc(C(=O)NCCCCCCC(=O)NO)cc1` was tested, and the Activity [1] was 62.3%, the Emax [2] was 85.2% and the Activity [3] was “Active”. For the same molecule, the Activity [4] was “Active”, the Activity [5] was “Active” and the Activity [6] was “inactive”. For the same molecule, the Activity [7] was “inactive”, the Activity [8] was “inactive” and the Activity [9] was “inactive”. For the same molecule, the Activity [10] was “inactive”, the Activity [11] was 87% and the Activity [12] was 53%. For the same molecule, the Activity [13] was 75%, the Activity (MM1.S [14]) was “Active” and the Activity (MM1.S [15]) was “Active”. For the same molecule, the Activity (MM1.S [16]) was “Active”, the Activity (MM1.S [17]) was “Active” and the Activity [18] was “Active”. The Activity [19] was “Active”, the Activity [20] was “Active” and the Activity [21] was “Active”. The Activity [22] was “Active” and the Activity [23] was “Active”.
